US12252524B2, “GIP/GLP1 co-agonist compounds” (Eli Lilly and Company, priority 2018, dated 2025)
Numbered stars: 1 amine (or outer) side, 2 acyl side, 3 side chain; on linkers, the order of the positions; unused ones are H or OH. Square brackets hold non-standard residues; d marks the D form. Side chains are listed from the residue outwards. Peptide text beside a SMILES is read from it. * marks the point of attachment. C20 diacid = O=C(O)CCCCCCCCCCCCCCCCCCC(=O)*; C18 diacid = O=C(O)CCCCCCCCCCCCCCCCC(=O)*; γGlu = O=C(O)[C@H](CCC(=O)[*:2])N[*:1]; Desaminohistidyl = O=C(CCc1c[nH]cn1)*; Desaminotyrosyl = O=C(CCc1ccc(O)cc1)*; αMeP = C[C@@]1(C(=O)O)CCCN1; AEEA = NCCOCCOCC(=O)O; Aib = CC(C)(N)C(=O)O

Assays:
[1] = molecular target: human GLP-1 receptor (GLP-1R) (Homo sapiens, UniProt P43220); assay: cAMP pharmacological functional assay in presence of casein, hGLP-1R; format: cell-based; details: HEK293 cells expressing hGLP-1R, 0.1% Casein, geometric mean; read-out: hGLP1R cAMP Rel EC50 nM (SEM, n)
[2] = molecular target: T1, gastric inhibitory peptide receptor (GIPR) (Homo sapiens, UniProt P48546); assay: cAMP pharmacological functional assay in presence of casein, hGIPR; format: cell-based; details: HEK293 cells expressing hGIPR, 0.1% Casein, geometric mean; read-out: hGIPR cAMP Rel EC50 nM (SEM, n)
T1 sequence (P48546 22-466): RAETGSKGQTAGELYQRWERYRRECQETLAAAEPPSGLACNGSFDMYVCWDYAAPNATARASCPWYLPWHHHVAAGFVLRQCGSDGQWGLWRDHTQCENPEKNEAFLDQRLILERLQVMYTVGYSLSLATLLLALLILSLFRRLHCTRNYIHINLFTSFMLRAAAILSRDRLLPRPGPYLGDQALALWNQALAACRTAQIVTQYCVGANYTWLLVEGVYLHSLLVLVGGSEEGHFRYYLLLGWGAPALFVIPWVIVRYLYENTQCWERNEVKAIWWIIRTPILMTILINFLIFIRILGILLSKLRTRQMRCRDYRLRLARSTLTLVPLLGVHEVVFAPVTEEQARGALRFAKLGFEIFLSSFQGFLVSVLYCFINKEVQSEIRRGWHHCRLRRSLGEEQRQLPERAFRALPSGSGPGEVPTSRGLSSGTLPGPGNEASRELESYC

human GLP-1 receptor (GLP-1R), sequence (P43220 24-463): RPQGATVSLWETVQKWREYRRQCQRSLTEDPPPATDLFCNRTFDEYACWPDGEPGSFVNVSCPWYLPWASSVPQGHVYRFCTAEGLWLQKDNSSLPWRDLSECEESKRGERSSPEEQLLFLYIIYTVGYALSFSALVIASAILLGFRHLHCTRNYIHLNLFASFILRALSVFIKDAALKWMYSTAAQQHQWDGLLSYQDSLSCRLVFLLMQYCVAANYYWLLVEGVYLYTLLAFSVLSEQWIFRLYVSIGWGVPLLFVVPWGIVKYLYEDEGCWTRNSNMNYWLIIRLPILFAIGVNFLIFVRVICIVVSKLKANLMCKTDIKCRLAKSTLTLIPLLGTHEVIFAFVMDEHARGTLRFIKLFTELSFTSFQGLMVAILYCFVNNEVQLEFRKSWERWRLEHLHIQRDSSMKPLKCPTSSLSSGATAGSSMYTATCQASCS

Compound | EC50 [1] [nM] | EC50 [2] [nM]
CC[C@H](C)[C@H](NC(=O)[C@H](CC(C)C)NC(=O)[C@H](Cc1ccc(O)cc1)NC(=O)[C@H](CCC(=O)O)NC(=O)[C@@H](NC(=O)[C@H](Cc1ccccc1)NC(=O)[C@H](C)NC(=O)[C@H](Cc1c[nH]cn1)NC(=O)[C@H](CCC(N)=O)NC(=O)[C@H](C)NC(=O)[C@H](CCCCNC(=O)COCCOCCNC(=O)COCCOCCNC(=O)CC[C@H](NC(=O)CCCCCCCCCCCCCCCCCCC(=O)O)C(=O)O)NC(=O)[C@H](CCCNC(=N)N)NC(=O)[C@H](CC(=O)O)NC(=O)[C@H](CC(C)C)NC(=O)[C@H](CC(C)C)NC(=O)[C@@H](NC(=O)[C@H](CO)NC(=O)[C@H](Cc1ccc(O)cc1)NC(=O)[C@H](CC(=O)O)NC(=O)[C@H](CO)NC(=O)[C@@H](NC(=O)[C@H](Cc1ccccc1)NC(=O)[C@@H](NC(=O)CNC(=O)[C@H](CCC(=O)O)NC(=O)[C@]1(C)CCCN1C(=O)[C@@H](N)Cc1ccc(O)cc1)[C@@H](C)O)[C@@H](C)O)[C@@H](C)CC)[C@@H](C)CC)C(=O)N[C@@H](CCC(=O)O)C(=O)NCC(=O)NCC(=O)N1CCC[C@H]1C(=O)N[C@@H](CO)C(=O)N[C@@H](CO)C(=O)NCC(=O)N[C@@H](C)C(=O)N1CCC[C@H]1C(=O)N1CCC[C@H]1C(=O)N1CCC[C@H]1C(=O)N[C@@H](CO)C(N)=O [Example 196] (H-Y[αMeP]EGTFTSDYSILLDRK([AEEA-AEEA-γGlu-C20 diacid])AQHAFIEYLIEGGPSSGAPPPS-NH2) | 0.175 | 0.277
CC[C@H](C)[C@H](NC(=O)[C@H](CC(C)C)NC(=O)[C@H](Cc1ccc(O)cc1)NC(=O)[C@H](CCC(=O)O)NC(=O)[C@@H](NC(=O)[C@H](Cc1ccccc1)NC(=O)[C@H](C)NC(=O)[C@H](CCC(N)=O)NC(=O)[C@H](CCC(N)=O)NC(=O)[C@H](C)NC(=O)[C@H](CCCCNC(=O)COCCOCCNC(=O)COCCOCCNC(=O)CC[C@H](NC(=O)CCCCCCCCCCCCCCCCC(=O)O)C(=O)O)NC(=O)[C@H](CCC(=O)O)NC(=O)[C@H](CC(=O)O)NC(=O)[C@H](CC(C)C)NC(=O)[C@H](CC(C)C)NC(=O)[C@@H](NC(=O)[C@H](CO)NC(=O)[C@H](Cc1ccc(O)cc1)NC(=O)[C@H](CC(=O)O)NC(=O)[C@H](CO)NC(=O)[C@@H](NC(=O)[C@H](Cc1ccccc1)NC(=O)[C@@H](NC(=O)CNC(=O)[C@H](CCC(=O)O)NC(=O)[C@]1(C)CCCN1C(=O)[C@@H](N)Cc1ccc(O)cc1)[C@@H](C)O)[C@@H](C)O)[C@@H](C)CC)[C@@H](C)CC)C(=O)N[C@@H](CCC(=O)O)C(=O)NCC(=O)NCC(=O)N1CCC[C@H]1C(=O)N[C@@H](CO)C(=O)N[C@@H](CO)C(=O)NCC(N)=O [Example 197] (H-Y[αMeP]EGTFTSDYSILLDEK([AEEA-AEEA-γGlu-C18 diacid])AQQAFIEYLIEGGPSSG-NH2) | 0.248 | 0.211
CC[C@H](C)[C@H](NC(=O)[C@H](CC(C)C)NC(=O)[C@H](Cc1ccc(O)cc1)NC(=O)[C@H](CCC(=O)O)NC(=O)[C@@H](NC(=O)[C@H](Cc1ccccc1)NC(=O)[C@H](C)NC(=O)[C@H](CCC(N)=O)NC(=O)[C@H](CCC(N)=O)NC(=O)[C@H](C)NC(=O)[C@H](CCCCNC(=O)COCCOCCNC(=O)COCCOCCNC(=O)CC[C@H](NC(=O)CCCCCCCCCCCCCCCCC(=O)O)C(=O)O)NC(=O)[C@H](CCC(=O)O)NC(=O)[C@H](CC(=O)O)NC(=O)[C@H](CC(C)C)NC(=O)[C@H](CC(C)C)NC(=O)[C@@H](NC(=O)[C@H](CO)NC(=O)[C@H](Cc1ccc(O)cc1)NC(=O)[C@H](CC(=O)O)NC(=O)[C@H](CO)NC(=O)[C@@H](NC(=O)[C@H](Cc1ccccc1)NC(=O)[C@@H](NC(=O)CNC(=O)[C@H](CCC(=O)O)NC(=O)[C@]1(C)CCCN1C(=O)[C@H](N)Cc1ccc(O)cc1)[C@@H](C)O)[C@@H](C)O)[C@@H](C)CC)[C@@H](C)CC)C(=O)N[C@@H](CCC(=O)O)C(=O)NCC(=O)NCC(=O)N1CCC[C@H]1C(=O)N[C@@H](CO)C(=O)N[C@@H](CO)C(=O)NCC(N)=O [Example 198] (H-[dY][αMeP]EGTFTSDYSILLDEK([AEEA-AEEA-γGlu-C18 diacid])AQQAFIEYLIEGGPSSG-NH2) | 0.139 | > 30
CC[C@H](C)[C@H](NC(=O)[C@H](CC(C)C)NC(=O)[C@H](Cc1ccc(O)cc1)NC(=O)[C@H](CCC(=O)O)NC(=O)[C@@H](NC(=O)[C@H](Cc1ccccc1)NC(=O)[C@H](C)NC(=O)[C@H](CCC(N)=O)NC(=O)[C@H](CCC(N)=O)NC(=O)[C@H](C)NC(=O)[C@H](CCCCNC(=O)COCCOCCNC(=O)COCCOCCNC(=O)CC[C@H](NC(=O)CCCCCCCCCCCCCCCCCCC(=O)O)C(=O)O)NC(=O)[C@H](CCC(=O)O)NC(=O)[C@H](CC(=O)O)NC(=O)[C@H](CC(C)C)NC(=O)[C@H](CC(C)C)NC(=O)[C@@H](NC(=O)[C@H](CO)NC(=O)[C@H](Cc1ccc(O)cc1)NC(=O)[C@H](CC(=O)O)NC(=O)[C@H](CO)NC(=O)[C@@H](NC(=O)[C@H](Cc1ccccc1)NC(=O)[C@@H](NC(=O)CNC(=O)[C@H](CCC(=O)O)NC(=O)C(C)(C)NC(=O)CCc1ccc(O)cc1)[C@@H](C)O)[C@@H](C)O)[C@@H](C)CC)[C@@H](C)CC)C(=O)N[C@@H](CCC(=O)O)C(=O)NCC(=O)NCC(=O)N1CCC[C@H]1C(=O)N[C@@H](CO)C(=O)N[C@@H](CO)C(=O)NCC(=O)N[C@@H](C)C(=O)N1CCC[C@H]1C(=O)N1CCC[C@H]1C(=O)N1CCC[C@H]1C(=O)N[C@@H](CO)C(N)=O [Example 199] (Desaminotyrosyl-[Aib]EGTFTSDYSILLDEK([AEEA-AEEA-γGlu-C20 diacid])AQQAFIEYLIEGGPSSGAPPPS-NH2) | 0.0422 | > 30
CC[C@H](C)[C@H](NC(=O)[C@H](CC(C)C)NC(=O)[C@H](Cc1ccc(O)cc1)NC(=O)[C@H](CCC(=O)O)NC(=O)[C@@H](NC(=O)[C@H](Cc1ccccc1)NC(=O)[C@H](C)NC(=O)[C@H](CCC(N)=O)NC(=O)[C@H](CCC(N)=O)NC(=O)[C@H](C)NC(=O)[C@H](CCCCNC(=O)COCCOCCNC(=O)COCCOCCNC(=O)CC[C@H](NC(=O)CCCCCCCCCCCCCCCCCCC(=O)O)C(=O)O)NC(=O)[C@H](CCC(=O)O)NC(=O)[C@H](CC(=O)O)NC(=O)[C@H](CC(C)C)NC(=O)[C@H](CC(C)C)NC(=O)[C@@H](NC(=O)[C@H](CO)NC(=O)[C@H](Cc1ccc(O)cc1)NC(=O)[C@H](CC(=O)O)NC(=O)[C@H](CO)NC(=O)[C@@H](NC(=O)[C@H](Cc1ccccc1)NC(=O)[C@@H](NC(=O)CNC(=O)[C@H](CCC(=O)O)NC(=O)[C@]1(C)CCCN1C(=O)CCc1c[nH]cn1)[C@@H](C)O)[C@@H](C)O)[C@@H](C)CC)[C@@H](C)CC)C(=O)N[C@@H](CCC(=O)O)C(=O)NCC(=O)NCC(=O)N1CCC[C@H]1C(=O)N[C@@H](CO)C(=O)N[C@@H](CO)C(=O)NCC(=O)N[C@@H](C)C(=O)N1CCC[C@H]1C(=O)N1CCC[C@H]1C(=O)N1CCC[C@H]1C(=O)N[C@@H](CO)C(N)=O [Example 201] (Desaminohistidyl-[αMeP]EGTFTSDYSILLDEK([AEEA-AEEA-γGlu-C20 diacid])AQQAFIEYLIEGGPSSGAPPPS-NH2) | 0.0385 | > 30
